Measured values reported in patent US10287276B2, “Heteroaryl-1,2,4-triazole and heteroaryl-tetrazole compounds for controlling ectoparasites” (Elanco Tiergesundheit AG, priority 2016, dated 2019).

Tests used:
[1] = test system: Lucilla Cuprina (Australian sheep blowfly); test: Activity in vitro against Lucilla cuprina (Australian sheep blowfly), Assay A; details: Lucilia cuprina, 96 h; at 32 ppm; eggs on agar-based medium, 4 days at 28° C. and 60% relative humidity; read-out: efficacy (EC80)
Protocol: Activity in vitro against Lucilla Cuprina (Australian sheep blowfly)—Assay A
Freshly laid blowfly eggs are used to seed a suitably formatted microplate containing the test substances to be evaluated for antiparasitic activity. Each compound is tested by serial dilution in order to determine its minimum efficacy dose. The test compounds are embedded in an agar-based nutritive medium allowing the full development of the eggs into 3rd instar larvae. The incubation lasts for 4 days at 28° C. and 60% relative humidity. Egg-hatching and ensuing larval development are also recorded to identify a possible growth-regulating activity.

[2] = test system: Rhipicephalus sanguineus (Dog Tick); test: Activity in vitro against Rhipicephalus sanguineus (dog tick), Assay A, contact test; details: Rhipicephalus sanguineus, 168 h, at 100 ppm, adult ticks, 28° C. and 80% relative humidity for 7 days, read-out: efficacy (EC80)
Protocol: Activity In Vitro Against Rhipicephalus sanguineus (Dog Tick)—Assay A
A contact test is performed by pre-coating microplate with serial dilution of compound allowing evaluating anti-parasitic activity by contact against ticks. A mixed adult tick population is then distributed to each well of the plate and incubated at 28° C. and 80% relative humidity for 7 days, during which the effect of the test compound is monitored. Acaricidal activity is confirmed if and when adult ticks are dead.

[3] = test system: Ctenocephalides Felis (Cat Flea); test: Activity in vitro against Ctenocephalides felis (cat flea), Assay A; details: Ctenocephalides felis; at 100 ppm; adult fleas fed on treated blood for 24 h; dead fleas counted; read-out: efficacy (EC80)
Protocol: Activity In Vitro Against Ctenocephalides Felis (Cat Flea)—Assay A
A mixed adult population of fleas is placed in a suitably formatted 96-well plate allowing fleas to access and feed on treated blood via an artificial feeding system. Fleas are fed on treated blood for 24 h, after which the compound effect is recorded. Insecticidal activity is determined on the basis of the number of dead fleas recovered from the feeding system.

[4] = test system: Engorged Female Rhipicephalus microplus (Cattle Tick); test: Activity in vitro against engorged female Rhipicephalus microplus (cattle tick), contact test; details: 672 h, organophosphorous-resistant Ultimo strain, evaluation 28 days later on mortality, oviposition and hatched larvae, read-out: efficacy (EC80)
Protocol: Activity In Vitro Against Engorged Female Rhipicephalus microplus (Cattle Tick)
A contact test is performed by pre-coating 6-well microplates with serial dilution of the compound to be evaluated for anti-parasitic activity. 10 engorged female ticks of the organophosphorous-resistant Ultimo strain are distributed to each well in triplicates. Plates are then incubated at 28° C. and 80% relative humidity. Evaluation takes place 28 days later based on mortality, oviposition and hatched larvae. […] Activity In Vivo Against Rhipicephalus sanguineus Nymphs on Mongolian Gerbils (Meriones unguiculatus) (Spray Application)

Lice (Polyplax serrata) = test: Activity in vivo against lice (Polyplax serrata) in mice (topical); details: pour-on application, live lice on day +4 and +14, Henderson & Tilton formula, read-out: efficacy (EC90)
Protocol: Activity In Vivo Against Lice (Polyplax serrata) in Mice (Topical) Mice naturally infected with P. serrata are treated with the formulated test compound on day 0 by pour-on application. On day +4 and +14, efficacy is evaluated by counting the number of live lice under a binocular. Efficacy at the two time points is expressed as a comparison of lice numbers counted on the same mouse before treatment, using the Henderson & Tilton formula, taking also into account lice numbers found on mice treated with the empty formulation (placebo group): [formula] n=number of lice, T=treated group, Co=control/placebo group.

SMILES	pest or weed control at 32 ppm [1] [%]	pest or weed control at 100 ppm [2] [%]	pest or weed control at 100 ppm [3] [%]	pest or weed control at 200 ppm [4] [%]	inhibition in vivo at 32 mg/kg (Lice (Polyplax serrata)) [%]
CC(CN(CC1CC1)C(=O)c1cc(C(F)(F)F)cc(C(F)(F)F)c1)c1ncnn1-c1ccccn1 (stereo not shown) [Example 42, 3-(Cyclopropylmethyl)-N-[2-[2-(2-pyridyl)-1,2,4-triazol-3-yl]propyl]-3,5-bis(trifluoromethyl)benzamide]	> 80	> 80	> 80	–	–
CC(c1ncnn1-c1ccccn1)N(CC1CC1)C(=O)c1cccc(OC(F)(F)F)c1 (stereo not shown) [Example 4, N-(Cyclopropylmethyl)-N-[1-[2-(2-pyridyl)-1,2,4-triazol-3-yl]ethyl]-3-(trifluoromethoxy)benzamide]	> 80	> 80	> 80	> 80	–
CC(c1ncnn1-c1ccccn1)N(CC1COC1)C(=O)c1cc(C(F)(F)F)cc(C(F)(F)F)c1 (stereo not shown) [Example 13, N-(Oxetan-3-ylmethyl)-N-[1-[2-(2-pyridyl)-1,2,4-triazol-3-yl]ethyl]-3,5-bis(trifluoromethyl)benzamide]	> 80	> 80	> 80	–	–
CC(c1ncnn1-c1ncccn1)N(CCF)C(=O)c1cncc(C(F)(F)F)c1 (stereo not shown) [Example 30, N-(2-Fluoroethyl)-N-[1-(2-pyrimidin-2-yl-1,2,4-triazol-3-yl)ethyl]-5-(trifluoromethyl)pyridine-3-carboxamide]	> 80	> 80	> 80	–	> 90
CC(c1nnnn1-c1ncccn1)N(CC1CC1)C(=O)c1cc(C(F)(F)F)cc(C(F)(F)F)c1 (stereo not shown) [Example 33, N-(Cyclopropylmethyl)-N-[1-(1-pyrimidin-2-yltetrazol-5-yl)ethyl]-3,5-bis(trifluoromethyl)benzamide]	> 80	–	–	–	–
CC(c1ncnn1-c1ncccn1)N(CCF)C(=O)c1cc(Cl)cc(OC(F)(F)F)c1 (stereo not shown) [Example 22, 3-Chloro-N-(2-fluoroethyl)-N-[1-(2-pyrimidin-2-yl-1,2,4-triazol-3-yl)ethyl]-5-(trifluoromethoxy)benzamide]	> 80	–	> 80	> 80	–
CC(c1ncnn1-c1ccccn1)N(Cc1cccc(Cl)c1)C(=O)c1cccc(C#N)c1 (stereo not shown) [Example 5, N-[(3-Chlorophenyl)methyl]-3-cyano-N-[1-[2-(2-pyridyl)-1,2,4-triazol-3-yl]ethyl]benzamide]	–	–	> 80	–	–
CC(c1ncnn1-c1ccccn1)N(CC1CC1(Cl)Cl)C(=O)c1cc(C(F)(F)F)cc(C(F)(F)F)c1 (stereo not shown) [Example 17, N-[(2,2-Dichlorocyclopropyl)methyl]-N-[1-[2-(2-pyridyl)-1,2,4-triazol-3-yl]ethyl]-3,5-bis(trifluoromethyl)benzamide]	> 80	–	> 80	> 80	> 90
C#CCN(C(=O)c1cc(C(F)(F)F)cc(C(F)(F)F)c1)[C@@H](C)c1ncnn1-c1ncccn1 [Example 46, N-Prop-2-ynyl-N-[(1S)-1-(2-pyrimidin-2-yl-1,2,4-triazol-3-yl)ethyl]-3,5-bis(trifluoromethyl)benzamide]	> 80	–	> 80	> 80	–
C#CCN(C(=O)c1cc(Cl)cc(C(F)(F)F)c1)C(C)c1ncnn1-c1ccccn1 (stereo not shown) [Example 7, 3-Chloro-N-prop-2-ynyl-N-[1-[2-(2-pyridyl)-1,2,4-triazol-3-yl]ethyl]-5-(trifluoromethyl)benzamide]	> 80	–	> 80	> 80	> 90
C#CCN(C(=O)c1cncc(C(F)(F)F)c1)[C@@H](C)c1ncnn1-c1ncccn1 [Example 43, N-Prop-2-ynyl-N-[(1S)-1-(2-pyrimidin-2-yl-1,2,4-triazol-3-yl)ethyl]-5-(trifluoromethyl)pyridine-3-carboxamide]	> 80	> 80	> 80	–	–
C#CCN(C(=O)c1cncc(C(F)(F)F)c1)C(C)c1ncnn1-c1ncccn1 (stereo not shown) [Example 32, N-Prop-2-ynyl-N-[1-(2-pyrimidin-2-yl-1,2,4-triazol-3-yl)ethyl]-5-(trifluoromethyl)pyridine-3-carboxamide]	> 80	> 80	> 80	–	–
CC(c1ncnn1-c1ccccn1)N(CC1CC1)C(=O)c1cc(Cl)cc(C(F)(F)F)c1 (stereo not shown) [Example 6, 3-Chloro-N-(cyclopropylmethyl)-N-[1-[2-(2-pyridyl)-1,2,4-triazol-3-yl]ethyl]-5-(trifluoromethyl)benzamide]	> 80	> 80	> 80	> 80	–
CC(c1ncnn1-c1ncccn1)N(CCCF)C(=O)c1cc(Cl)cc(OC(F)(F)F)c1 (stereo not shown) [Example 25, 3-Chloro-N-(3-fluoropropyl)-N-[1-(2-pyrimidin-2-yl-1,2,4-triazol-3-yl)ethyl]-5-(trifluoromethoxy)benzamide]	> 80	–	> 80	> 80	> 90
Cc1nc(C(C)N(CC2CC2)C(=O)c2cccc(C#N)c2)n(-c2ccccn2)n1 (stereo not shown) [Example 34, 3-Cyano-N-(cyclopropylmethyl)-N-[1-[5-methyl-2-(2-pyridyl)-1,2,4-triazol-3-yl]ethyl]benzamide]	–	> 80	> 80	–	–
CC(c1ncnn1-c1ncccn1)N(CCCF)C(=O)c1cc(C(F)(F)F)cc(C(F)(F)F)c1 (stereo not shown) [Example 21, N-(3-Fluoropropyl)-N-[1-(2-pyrimidin-2-yl-1,2,4-triazol-3-yl)ethyl]-3,5-bis(trifluoromethyl)benzamide]	> 80	–	> 80	> 80	> 90
CC(c1ncnn1-c1ccccn1)N(CC1CC1)C(=S)c1cccc(C#N)c1 (stereo not shown) [Example 47, 3-Cyano-N-(cyclopropylmethyl)-N-[1-[2-(2-pyridyl)-1,2,4-triazol-3-yl]ethyl]benzenecarbothioamide]	–	> 80	> 80	–	–
CC(c1ncnn1-c1ncccn1)N(CCC(F)(F)F)C(=O)c1cc(Cl)cc(OC(F)(F)F)c1 (stereo not shown) [Example 27, 3-Chloro-N-[1-(2-pyrimidin-2-yl-1,2,4-triazol-3-yl)ethyl]-5-(trifluoromethoxy)-N-(3,3,3-trifluoropropyl)benzamide]	> 80	> 80	> 80	–	> 90
CCCN(C(=O)c1cc(Cl)cc(Cl)c1)C(C)c1ncnn1-c1ccccn1 (stereo not shown) [Example 3]	> 80	> 80	> 80	> 80	–
CC(c1ncnn1-c1ccccn1)N(CC1CC1)C(=O)c1cc(Cl)cc(Cl)c1 (stereo not shown) [Example 2, 3,5-Dichloro-N-(cyclopropylmethyl)-N-[1-[2-(2-pyridyl)-1,2,4-triazol-3-yl]ethyl]benzamide]	> 80	> 80	> 80	> 80	–
